Where two headings read alike, the source gives them in different places.
Biological target: T1, FmlHLD (Escherichia coli, UniProt P77588)
T1 construct: 6xHis (C); made in house; host or cells: E. coli C600, periplasm, pTRC99a
Experiment: biochemical
Type: binding, E. coli
Conditions: for inhibitory potency against FmlH, in words: ELISA-based competition assay; for PI100 (percent inhibition): galactoside at 100 μM; for % Inhibition at [μM] [100]: compound at 100 μM
Procedure, shortened: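 Sialidase-treated bovine submaxillary mucin (ds-BSM) coated wells, BSA-blocked, then biotinylated FmlH^LD (20 μg/mL) with or without compound for 1 h at room temperature. Bound lectin detected by streptavidin-HRP/TMB, A450.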

[1] = IC50 (μM), Table 5, Gal and GalNAc inhibition of FmlH
[2] = read-out: % Inhibition at [μM] [0.1], compound at 0.1 μM (100 nM), inhibition of FmlHLD binding to ds-BSM
[3] = read-out: % Inhibition at [μM] [1], compound at 1 μM, inhibition of FmlHLD binding to ds-BSM
[4] = read-out: PI (0.1) (average percent inhibition), compound at 100 nM, Table 4
[5] = read-out: PI(1) (average percent inhibition), compound at 1 μM, Table 4
[6] = read-out: % Inhibition at [μM] [10], compound at 10 μM, inhibition of FmlHLD binding to ds-BSM
[7] = read-out: % Inhibition at [μM] [100], compound at 100 μM, inhibition of FmlHLD binding to ds-BSM
[8] = mean with standard error of the mean, 100 µM
[9] = read-out: PI10 (percent inhibition), galactoside at 10 μM, mean with standard error of the mean
[10] = read-out: PI100 (percent inhibition), galactoside at 100 μM, mean with standard error of the mean
[11] = IC50, inhibition of FmlHLD binding to ds-BSM
[12] = inhibition of FmlHLD binding to ds-BSM
[13] = IC50 (μM), Table 6, sulfonamides 3078-3090
[14] = read-out: PI1 (percent inhibition), galactoside at 1 μM, mean with standard error of the mean

T1 sequence (P77588 25-182): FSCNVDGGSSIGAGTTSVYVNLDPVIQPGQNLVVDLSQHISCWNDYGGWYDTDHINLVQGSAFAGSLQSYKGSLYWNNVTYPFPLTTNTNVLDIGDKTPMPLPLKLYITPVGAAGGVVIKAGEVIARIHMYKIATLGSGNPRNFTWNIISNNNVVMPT

## CC(=O)N[C@H]1[C@H](Oc2ccccc2-c2cccc(CO)c2)O[C@H](CO)[C@H](O)[C@@H]1O [AM2064, N-((2S,3R,4R,5R,6R)-4,5-dihydroxy-6-(hydroxymethyl)-2-((3′-(hydroxymethyl)-[1,1′-biphenyl]-2-yl)oxy)tetrahydro-2H-pyran-3-yl)acetamide]
  inhibitory potency against FmlH, in words: equal or slightly reduced potency
[1]
  IC50: 0.63 µM
[2]
  inhibition at 0.1 µM: 2%
[3]
  inhibition at 1 µM: 38.9%
[4]
  inhibition at 0.1 µM: 2%
[5]
  inhibition at 1 µM: 38.9%

## Nc1ccc(O[C@@H]2O[C@H](CO)[C@H](O)[C@H](O)[C@H]2O)cc1 [4-amino-phenyl Gal, reference compound]
[6]
  inhibition at 10 µM: 9.8%
[7]
  inhibition at 100 µM: 65.1%

## Cc1cc(=O)oc2c(F)c(O[C@@H]3O[C@H](CO)[C@H](O)[C@H](O)[C@H]3O)c(F)cc12 [Compound 13β]
[8]
  PI100 (percent inhibition): 49.7 ± 4.5%
[9]
  inhibition at 10 µM: 0.8 ± 3.1%
[10]
  inhibition at 100 µM: 50%

## O=[N+]([O-])c1ccc(S[C@@H]2O[C@H](CO)[C@H](O)[C@H](O)[C@H]2O)cc1 [PNPTG, reference compound]
[6]
  inhibition at 10 µM: 17%
[7]
  inhibition at 100 µM: 72.5%

## OC[C@H]1O[C@@H](SCCc2ccccc2)[C@H](O)[C@@H](O)[C@H]1O [2-phenylethyl-thio-galactoside, reference compound]
[6]
  inhibition at 10 µM: 2.31%
[7]
  inhibition at 100 µM: 49.9%

## CS(=O)(=O)Nc1cccc(-c2ccccc2O[C@@H]2O[C@H](CO)[C@H](O)[C@H](O)[C@H]2O)c1 [AM2043, N-(2′-(((2S,3R,4S,5R,6R)-3,4,5-trihydroxy-6-(hydroxymethyl)tetrahydro-2H-pyran-2-yl)oxy)-[1,1′-biphenyl]-3-yl)methanesulfonamide]
  inhibitory potency against FmlH, in words: loss in activity relative to 29β-NAc
[1]
  IC50: 1.11 µM
[11]
  IC50: 1.11 µM
[2]
  inhibition at 0.1 µM: 1.6%
[3]
  inhibition at 1 µM: 49.8%
[4]
  inhibition at 0.1 µM: 1.6%
[5]
  inhibition at 1 µM: 49.8%

## O=[N+]([O-])c1ccc(O[C@@H]2O[C@H](CO[C@@H]3O[C@H](CO)[C@H](O)[C@H](O)[C@H]3O)[C@H](O)[C@H](O)[C@H]2O)cc1 [Gal-b1-6-PNPG, reference compound]
[12]
  % Inhibition at [μM] [100]: 19.41%

## CC1=CC(=O)Cc2c1cc(F)c(O[C@@H]1O[C@H](CO)[C@H](O)[C@H](O)[C@H]1O)c2F [DiF-MUG, reference compound]
[6]
  inhibition at 10 µM: 0.85%
[7]
  inhibition at 100 µM: 49.7%

## CC(=O)N[C@H]1[C@H](Oc2ccccc2-c2cccc(C(=O)N(C)C)c2)O[C@H](CO)[C@H](O)[C@@H]1O [AM2032, 2′-(((2S,3R,4R,5R,6R)-3-acetamido-4,5-dihydroxy-6-(hydroxymethyl)tetrahydro-2H-pyran-2-yl)oxy)-N,N-dimethyl-[1,1′-biphenyl]-3-carboxamide]
  inhibitory potency against FmlH, in words: equal or slightly reduced potency
[1]
  IC50: 3.13 µM
[3]
  inhibition at 1 µM: -3.61%
[5]
  inhibition at 1 µM: -3.61%

## CC(=O)N[C@H]1[C@H](Oc2ccccc2-c2cc(NS(=O)(=O)C(F)(F)F)ccc2F)O[C@H](CO)[C@H](O)[C@@H]1O [AM2116]
[11]
  IC50: 3.07 µM

## O=[N+]([O-])c1ccc(O[C@@H]2O[C@H](CO[C@@H]3O[C@H](CO)[C@H](O)[C@H](O)[C@H]3O)[C@H](O)[C@H](O)[C@H]2O)cc1 [Compound 35, p-nitrophenyl Gal-β1-6-Gal, reference compound]
Mean with standard error of the mean
  PI100 (percent inhibition): 19.4 ± 1.6%

## CC(=O)N[C@H]1[C@H](Oc2ccccc2-c2cccc(NS(=O)(=O)C(F)(F)F)c2)O[C@H](CO)[C@H](O)[C@@H]1O [Compound 3049, N-((2S,3R,4R,5R,6R)-4,5-dihydroxy-6-(hydroxymethyl)-2-((3′-((trifluoromethyl)sulfonamido)-[1,1′-biphenyl]-2-yl)oxy)tetrahydro-2H-pyran-3-yl) acetamide]
[1]
  IC50: 1.17 µM

## OC[C@H]1O[C@@H](Oc2cccc(-c3ccccc3)c2)[C@H](O)[C@@H](O)[C@H]1O [Compound 31β, [1,1′-biphenyl]-3-yl α/β-D-galactopyranoside]
[8]
  PI100 (percent inhibition): 56.9 ± 6.2%
[9]
  inhibition at 10 µM: 7.8 ± 5.5%
[10]
  inhibition at 100 µM: 57%

## CC(=O)N[C@@H]1[C@H](Oc2cccc(C(=O)O)c2-c2cccc(NS(C)(=O)=O)c2)OC(CO)[C@H](O)[C@@H]1O (stereo partly drawn) [Compound 3082, 6-(((2S,3S,4R,5R)-3-acetamido-4,5-dihydroxy-6-(hydroxymethyl)tetrahydro-2H-pyran-2-yl)oxy)-3′-(methylsulfonamido)-[1,1′-biphenyl]-2-carboxylic acid]
[13]
  IC50: 0.13 µM

## O=C(O)c1cc(-c2ccccc2O[C@@H]2O[C@H](CO)[C@H](O)[C@H](O)[C@H]2O)cc([N+](=O)[O-])c1 [AM2050, 5-nitro-2′-(((2S,3R,4S,5R,6R)-3,4,5-trihydroxy-6-(hydroxymethyl)tetrahydro-2H-pyran-2-yl)oxy)-[1,1′-biphenyl]-3-car oxylic acid]
2038 vs 2043, 2050 vs 3029
  potency relative to matched pair Gal/GalNAc derivative: 6 fold
[1]
  IC50: 0.28 µM
[11]
  IC50: 0.418 µM
[2]
  inhibition at 0.1 µM: 7.6%
[3]
  inhibition at 1 µM: 68%
[4]
  inhibition at 0.1 µM: 7.6%
[5]
  inhibition at 1 µM: 68%

## CC(C)S[C@@H]1O[C@H](CO)[C@H](O)[C@H](O)[C@H]1O [36β-thio (IPTG), reference compound]
[10]
  inhibition at 100 µM: 23.7 ± 5.3%

## CC(=O)N[C@H]1[C@H](Oc2cccc(C(=O)OCc3ccccc3)c2-c2cccc(NS(C)(=O)=O)c2)O[C@H](CO)[C@H](O)[C@@H]1O [AM2141]
[11]
  IC50: 0.18 µM

## CCOC(=O)c1ccc(OC)c(-c2ccccc2O[C@@H]2O[C@H](CO)[C@H](O)[C@H](O)[C@H]2NC(C)=O)c1 [AM2053, ethyl 2′-(((2S,3R,4R,5R,6R)-3-acetamido-4,5-dihydroxy-6-(hydroxymethyl)tetrahydro-2H-pyran-2-yl)oxy)-6-methoxy-[1,1′-biphenyl]-3-carboxylate]
[2]
  inhibition at 0.1 µM: 0%
[3]
  inhibition at 1 µM: 13.7%
[4]
  inhibition at 0.1 µM: 0%
[5]
  inhibition at 1 µM: 13.7%

## CC(=O)N[C@@H]1[C@H](Oc2ccccc2-c2cc(C(=O)O)cc([N+](=O)[O-])c2)OC(CO)[C@H](O)[C@@H]1O (stereo partly drawn) [Compound 3029, 2′-(((2S,3S,4R,5R)-3-acetamido-4,5-dihydroxy-6-(hydroxymethyl)tetrahydro-2H-pyran-2-yl)oxy)-5-nitro-[1,1′-biphenyl]-3-carboxylic acid]
[1]
  IC50: 2.2 µM

## OC[C@H]1O[C@@H](Oc2ccccc2-c2ccccc2)[C@H](O)[C@@H](O)[C@H]1O [Compound 28β, [1,1′-biphenyl]-2-yl α/β-D-galactopyranoside]
[8]
  PI100 (percent inhibition): 91.1 ± 1.2%
[14]
  inhibition at 1 µM: 8.1 ± 6%
[9]
  inhibition at 10 µM: 31 ± 2.1%
[10]
  inhibition at 100 µM: 91%

## N#Cc1ccc(O[C@@H]2O[C@H](CO)[C@H](O)[C@H](O)[C@H]2O)cc1 [Compound 152b]
[3]
  inhibition at 1 µM: 9.47%
[6]
  inhibition at 10 µM: 19.2%
[7]
  inhibition at 100 µM: 85.7%

## OC[C@H]1O[C@@H](Oc2cccc(-c3ccccc3)c2)[C@H](O)[C@@H](O)[C@H]1O [Compound 114af2]
[6]
  inhibition at 10 µM: 7.8%
[7]
  inhibition at 100 µM: 56.9%

## CNC(=O)c1cccc(-c2ccccc2O[C@@H]2O[C@H](CO)[C@H](O)[C@H](O)[C@H]2NC(C)=O)c1 [AM1189, 2′-(((2S,3R,4R,5R,6R)-3-acetamido-4,5-dihydroxy-6-(hydroxymethyl)tetrahydro-2H-pyran-2-yl)oxy)-N-methyl-[1,1′-biphenyl]-3-carboxamide]
  inhibitory potency against FmlH, in words: equal or slightly reduced potency
[1]
  IC50: 3.36 µM
[3]
  inhibition at 1 µM: 12.3%
[5]
  inhibition at 1 µM: 12.3%

## Cc1c(C)c2ccc(O[C@@H]3O[C@H](CO)[C@H](O)[C@H](O)[C@H]3O)cc2oc1=O [Compound 14β]
[8]
  PI100 (percent inhibition): 89.2 ± 0.4%
[14]
  inhibition at 1 µM: 10.2 ± 4.3%
[9]
  inhibition at 10 µM: 19.8 ± 3.8%
[10]
  inhibition at 100 µM: 89%

## COC(=O)c1cccc(-c2ccccc2O[C@H]2O[C@H](CO)[C@H](O)[C@H](O)[C@H]2O)c1 [Compound 30α, 2′-(α/β-D-galactopyranosyloxy)-[1,1′-Biphenyl]-3-carboxylic acid methyl ester]
[10]
  inhibition at 100 µM: 13.1 ± 7.6%

## O=C(O)C1OC(Oc2ccc([N+](=O)[O-])cc2)C(O)C(O)C1O (stereo not shown) [PNP Galacturonide, reference compound]
[12]
  % Inhibition at [μM] [100]: −2.40%

## Cc1ccccc1O[C@@H]1O[C@H](CO)[C@H](O)[C@H](O)[C@H]1O [Compound 135b]
[3]
  inhibition at 1 µM: 1.81%
[6]
  inhibition at 10 µM: 28.2%
[7]
  inhibition at 100 µM: 87.3%

## CC(=O)N[C@@H]1[C@H](Oc2cccc(C)c2-c2cccc(NS(=O)(=O)N(C)C)c2)OC(CO)[C@H](O)[C@@H]1O (stereo partly drawn) [Compound 3087, N-((2S,3S,4R,5R)-2-((3′-((N,N-dimethylsulfamoyl)amino)-6-methyl-[1,1′-biphenyl]-2-yl)oxy)-4,5-dihydroxy-6-(hydroxymethyl)tetrahydro-2H-pyran-3-yl)acetamide]
  inhibitory potency against FmlH, in words: retain the same activity as the methyl sulfonamides
[13]
  IC50: 0.13 µM

## COc1cccc(O[C@@H]2O[C@H](CO)[C@H](O)[C@H](O)[C@H]2NC(C)=O)c1-c1cccc(NS(C)(=O)=O)c1 [AM2082]
[11]
  IC50: 0.151 µM

## CC(=O)N[C@H]1[C@H](Oc2ccccc2-c2cccc(NC(=O)C(F)(F)F)c2)O[C@H](CO)[C@H](O)[C@@H]1O [AM2101]
[11]
  IC50: 1.02 µM

Reference: patent publication US11773127B2, “Compounds and methods for treating bacterial infections” (Washington University, priority 2017, dated 2023)
